Species on record: Rattus norvegicus
Assay: DrugMatrix - Regimen: Daily Repeat
Assay type: toxicity, organism-based, Sprague-Dawley
Set-up: regimen Daily Repeat, gender Male, age 6-8 weeks
Conditions: in vivo, ip, 0 mg/kg, route intraperitoneal, dose level Control, […]; for ABSOLUTE BASOPHIL / ABSOLUTE EOSINOPHIL / ABSOLUTE LYMPHOCYTE / ABSOLUTE MONOCYTE / ABSOLUTE SEGMENTED NEUTROPHIL / BASOPHIL / EOSINOPHIL / ERYTHROCYTE COUNT / HEMATOCRIT / HEMOGLOBIN / LEUKOCYTE COUNT / LYMPHOCYTE / MEAN CORPUSCULAR HEMOGLOBIN / MEAN CORPUSCULAR HEMOGLOBIN CONCENTRATION / MEAN CORPUSCULAR VOLUME / MONOCYTE / NEUTROPHIL / NUCLEATED RED BLOOD CELLS / PLATELET COUNT: tissue Blood; for ALANINE AMINOTRANSFERASE / ALBUMIN / ALKALINE PHOSPHATASE / ASPARTATE AMINOTRANSFERASE / BLOOD UREA NITROGEN / CARBON DIOXIDE / CHLORIDE / CHOLESTEROL / CREATININE / GLUCOSE / LACTATE DEHYDROGENASE / LIPASE / PHOSPHORUS / POTASSIUM / SODIUM / TOTAL BILIRUBIN / TOTAL PROTEIN / URIC ACID: tissue Plasma

ClC(Cl)=C(Cl)C(Cl)=C(Cl)Cl [HEXACHLOROBUTADIENE]
ABSOLUTE BASOPHIL (72 h, time 3 day): 0 CELLS/uL
ABSOLUTE EOSINOPHIL (72 h, time 3 day): 135.5 CELLS/uL
ABSOLUTE LYMPHOCYTE (72 h, time 3 day): 9030.67 CELLS/uL
ABSOLUTE MONOCYTE (72 h, time 3 day): 286.5 CELLS/uL
ABSOLUTE SEGMENTED NEUTROPHIL (72 h, time 3 day): 1330.67 CELLS/uL
BASOPHIL (72 h, time 3 day): 0%
EOSINOPHIL (72 h, time 3 day): 1.17%
ERYTHROCYTE COUNT (72 h, time 3 day): 5.54 x10E6/uL
HEMATOCRIT (72 h, time 3 day): 35.2%
HEMOGLOBIN (72 h, time 3 day): 12.65 G/DL
LEUKOCYTE COUNT (72 h, time 3 day): 10.78 x10E3/uL
LYMPHOCYTE (72 h, time 3 day): 83.83%
MEAN CORPUSCULAR HEMOGLOBIN (72 h, time 3 day): 22.87 pg
MEAN CORPUSCULAR HEMOGLOBIN CONCENTRATION (72 h, time 3 day): 35.98 G/DL
MEAN CORPUSCULAR VOLUME (72 h, time 3 day): 63.7 fL
MONOCYTE (72 h, time 3 day): 2.5%
NEUTROPHIL (72 h, time 3 day): 12.5%
NUCLEATED RED BLOOD CELLS (72 h, time 3 day): 0 /100WBC
PLATELET COUNT (72 h, time 3 day): 853.5 x10E3/uL
ALANINE AMINOTRANSFERASE (72 h, time 3 day): 45.83 u/L
ALBUMIN (72 h, time 3 day): 4.22 G/DL
ALKALINE PHOSPHATASE (72 h, time 3 day): 344.5 u/L
ASPARTATE AMINOTRANSFERASE (72 h, time 3 day): 85.33 u/L
BLOOD UREA NITROGEN (72 h, time 3 day): 16.17 mg/dL
CARBON DIOXIDE (72 h, time 3 day): 33.33 mmol/L
CHLORIDE (72 h, time 3 day): 101.33 MEQ/L
CHOLESTEROL (72 h, time 3 day): 73.33 mg/dL
CREATININE (72 h, time 3 day): 0.19 mg/dL
GLUCOSE (72 h, time 3 day): 157.67 mg/dL
LACTATE DEHYDROGENASE (72 h, time 3 day): 160.33 u/L
LIPASE (72 h, time 3 day): 9.83 u/L
PHOSPHORUS (72 h, time 3 day): 11.4 mg/dL
POTASSIUM (72 h, time 3 day): 6.1 MEQ/L
SODIUM (72 h, time 3 day): 146.25 MEQ/L
TOTAL BILIRUBIN (72 h, time 3 day): 0.17 mg/dL
TOTAL PROTEIN (72 h, time 3 day): 6.3 G/DL
URIC ACID (72 h, time 3 day): 1.28 mg/dL
ABSOLUTE BASOPHIL (120 h, time 5 day): 0 CELLS/uL
ABSOLUTE EOSINOPHIL (120 h, time 5 day): 134 CELLS/uL
ABSOLUTE LYMPHOCYTE (120 h, time 5 day): 9272.17 CELLS/uL
ABSOLUTE MONOCYTE (120 h, time 5 day): 286 CELLS/uL
ABSOLUTE SEGMENTED NEUTROPHIL (120 h, time 5 day): 1357.83 CELLS/uL
BASOPHIL (120 h, time 5 day): 0%
EOSINOPHIL (120 h, time 5 day): 1.17%
ERYTHROCYTE COUNT (120 h, time 5 day): 5.83 x10E6/uL
HEMATOCRIT (120 h, time 5 day): 36.17%
HEMOGLOBIN (120 h, time 5 day): 13.1 G/DL
LEUKOCYTE COUNT (120 h, time 5 day): 11.05 x10E3/uL
LYMPHOCYTE (120 h, time 5 day): 83.83%
MEAN CORPUSCULAR HEMOGLOBIN (120 h, time 5 day): 22.5 pg
MEAN CORPUSCULAR HEMOGLOBIN CONCENTRATION (120 h, time 5 day): 36.25 G/DL
MEAN CORPUSCULAR VOLUME (120 h, time 5 day): 62 fL
MONOCYTE (120 h, time 5 day): 2.67%
NEUTROPHIL (120 h, time 5 day): 12.33%
NUCLEATED RED BLOOD CELLS (120 h, time 5 day): 0 /100WBC
PLATELET COUNT (120 h, time 5 day): 806.67 x10E3/uL
ALANINE AMINOTRANSFERASE (120 h, time 5 day): 50.83 u/L
ALBUMIN (120 h, time 5 day): 4.13 G/DL
ALKALINE PHOSPHATASE (120 h, time 5 day): 358.17 u/L
ASPARTATE AMINOTRANSFERASE (120 h, time 5 day): 148.83 u/L
BLOOD UREA NITROGEN (120 h, time 5 day): 13.83 mg/dL
CARBON DIOXIDE (120 h, time 5 day): 35.83 mmol/L
CHLORIDE (120 h, time 5 day): 99.33 MEQ/L
CHOLESTEROL (120 h, time 5 day): 80.5 mg/dL
CREATININE (120 h, time 5 day): 0.19 mg/dL
GLUCOSE (120 h, time 5 day): 156.33 mg/dL
LACTATE DEHYDROGENASE (120 h, time 5 day): 238.17 u/L
LIPASE (120 h, time 5 day): 9.17 u/L
PHOSPHORUS (120 h, time 5 day): 12.53 mg/dL
POTASSIUM (120 h, time 5 day): 6.34 MEQ/L
SODIUM (120 h, time 5 day): 145.15 MEQ/L
TOTAL BILIRUBIN (120 h, time 5 day): 0.18 mg/dL
TOTAL PROTEIN (120 h, time 5 day): 6.07 G/DL
URIC ACID (120 h, time 5 day): 1.3 mg/dL
ABSOLUTE BASOPHIL (time 14 day): 0 CELLS/uL
ABSOLUTE EOSINOPHIL (time 14 day): 56.5 CELLS/uL
ABSOLUTE LYMPHOCYTE (time 14 day): 12701 CELLS/uL
ABSOLUTE MONOCYTE (time 14 day): 330.33 CELLS/uL
ABSOLUTE SEGMENTED NEUTROPHIL (time 14 day): 2428.83 CELLS/uL
BASOPHIL (time 14 day): 0%
EOSINOPHIL (time 14 day): 0.33%
ERYTHROCYTE COUNT (time 14 day): 6.18 x10E6/uL
HEMATOCRIT (time 14 day): 36.42%
HEMOGLOBIN (time 14 day): 13.22 G/DL
LEUKOCYTE COUNT (time 14 day): 15.52 x10E3/uL
LYMPHOCYTE (time 14 day): 82.5%
MEAN CORPUSCULAR HEMOGLOBIN (time 14 day): 21.38 pg
MEAN CORPUSCULAR HEMOGLOBIN CONCENTRATION (time 14 day): 36.32 G/DL
MEAN CORPUSCULAR VOLUME (time 14 day): 58.92 fL
MONOCYTE (time 14 day): 2.17%
NEUTROPHIL (time 14 day): 15%
NUCLEATED RED BLOOD CELLS (time 14 day): 0 /100WBC
PLATELET COUNT (time 14 day): 999 x10E3/uL
ALANINE AMINOTRANSFERASE (time 14 day): 39.17 u/L
ALBUMIN (time 14 day): 4.05 G/DL
ALKALINE PHOSPHATASE (time 14 day): 275.17 u/L
ASPARTATE AMINOTRANSFERASE (time 14 day): 84.5 u/L
BLOOD UREA NITROGEN (time 14 day): 12 mg/dL
CARBON DIOXIDE (time 14 day): 29.5 mmol/L
CHLORIDE (time 14 day): 101 MEQ/L
CHOLESTEROL (time 14 day): 73.83 mg/dL
CREATININE (time 14 day): 0.19 mg/dL
GLUCOSE (time 14 day): 146.5 mg/dL
LACTATE DEHYDROGENASE (time 14 day): 285.67 u/L
LIPASE (time 14 day): 9 u/L
PHOSPHORUS (time 14 day): 11.67 mg/dL
POTASSIUM (time 14 day): 6.82 MEQ/L
SODIUM (time 14 day): 143.57 MEQ/L
TOTAL BILIRUBIN (time 14 day): 0.13 mg/dL
TOTAL PROTEIN (time 14 day): 6.23 G/DL
URIC ACID (time 14 day): 1.75 mg/dL

Reference: ChEMBL document CHEMBL3885881, “DrugMatrix”
